Publication PMC12892976, “Alkylation-based optimization of antifungal FPPS inhibitors yields a potent, broad-spectrum lipophilic zoledronate derivative” (mBio, 2025)
≈ marks a conversion by molar mass, not a printed value. Read-outs that look alike come from different tables or passages of the source.

Key:
[1] = tested on: Aspergillus flavus; assay: checkerboard drug interaction (FICI, MICc);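 also: simplified diagonal checkerboard screen pairing azole antifungals with FPPS inhibitors, FICI calculated under the Loewe additivity model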; format: cell-based; details: A. flavus, MIC-MICc fold decrease of the inhibitor
Procedure: (§1) Drug interactions between antifungals and FPPS inhibitors were investigated using a simplified checkerboard diagonal screening method ([45]). […] FICIs were determined according to the Loewe additivity model ([17]).

[2] = tested on: eight fungal species; assay: MIC/MFC summary across the eight fungal species of Table 1; format: cell-based
Procedure: The antifungal activity of these compounds was evaluated according to CLSI guidelines ([16]).

[3] = tested on: Candida glabrata; assay: MIC/MFC broth microdilution (CLSI); details: Nakaseomyces glabratus, CBS138;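 also: broth microdilution following CLSI M27-Ed4, MFC taken as the lowest drug level yielding no growth once MIC wells were subcultured on SDA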
Procedure: (§2) Antifungal susceptibility was determined by broth microdilution according to the CLSI guidelines described in M27-Ed4 ([16]). […] MFC was determined by back-plating drug-treated cultures from MIC broths onto SDA plates. The MFC was defined as the lowest concentration from which no colonies could be cultured.

[4] = tested on: Saccharomyces cerevisiae; assay: checkerboard drug interaction (FICI, MICc); format: cell-based; design: INH MICc / INH MICc (ITR:INH) / INH MICc (KET:INH) / INH MICc (FLC:INH): unit not given beside the values;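 also: simplified diagonal checkerboard screen pairing antifungals with FPPS inhibitors, FICI calculated under the Loewe additivity model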
[5] = tested on: HEK-293T cells; assay: MTT reduction cytotoxicity assay; format: cell-based; details: Homo sapiens, HEK-293T, 72 h, MTT, 72 h
[6] = tested on: Cryptococcus neoformans; assay: MIC/MFC broth microdilution (CLSI); details: Cryptococcus neoformans;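 also: susceptibility testing followed the CLSI M27-Ed4 broth microdilution document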
Procedure: as §2

[7] = tested on: Cryptococcus deuterogattii; assay: checkerboard drug interaction (FICI, MICc);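 as to all read-outs here: simplified diagonal checkerboard screen pairing antifungal drugs with FPPS inhibitors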; format: cell-based; details: C. deuterogattii; for INH FD (MIC-MICc fold decrease): fold decrease of inhibitor MIC
Procedure: as §1

[8] = tested on: Aspergillus fumigatus; assay: checkerboard drug interaction (FICI, MICc); format: cell-based;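 also: simplified diagonal checkerboard screen pairing antifungals with FPPS inhibitors against Aspergillus fumigatus, with FICI calculated under the Loewe additivity model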
Procedure: as §1

[9] = tested on: Candida glabrata; assay: checkerboard drug interaction (FICI, MICc);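 as to all read-outs here: simplified diagonal checkerboard screen pairing antifungals with FPPS inhibitors, FICI calculated under the Loewe additivity model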; format: cell-based; details: C. glabrata; for INH FD (MIC-MICc fold decrease): fold decrease of inhibitor MIC
Procedure: as §1

[10] = Fractional Inhibitory Concentration Index, fluconazole + inhibitor
[11] = Fractional Inhibitory Concentration Index, itraconazole + inhibitor
[12] = Fractional Inhibitory Concentration Index, ketoconazole + inhibitor
[13] = MIC of the inhibitor in combination with fluconazole
[14] = MIC of the inhibitor in combination with itraconazole
[15] = MIC of the inhibitor in combination with ketoconazole
[16] = MIC-MICc fold decrease of fluconazole, negative = increase
[17] = MIC-MICc fold decrease of itraconazole, negative = increase
[18] = MIC-MICc fold decrease of ketoconazole, negative = increase
[19] = MIC-MICc fold decrease of the inhibitor, with fluconazole
[20] = MIC-MICc fold decrease of the inhibitor, with itraconazole
[21] = MIC-MICc fold decrease of the inhibitor, with ketoconazole
[22] = FLC:INH combination, MIC of the inhibitor in combination with FLC
[23] = FLC:INH combination, fold decrease of FLC MIC
[24] = ITR:INH combination, MIC of the inhibitor in combination with ITR
[25] = ITR:INH combination, fold decrease of ITR MIC
[26] = KET:INH combination, MIC of the inhibitor in combination with KET
[27] = KET:INH combination, fold decrease of KET MIC

CCCCCCCCCCCCN1CCC[C@H]1C(=O)N[C@H](CC(=O)O)C(=O)O [PDA12]
INH FD (ITR:INH) ([1]; with itraconazole): 2
INH FD (KET:INH) ([1]; with ketoconazole): 2
MFC ([2]; across eight species, read-out: Geometric mean MFC): > 128 µg/mL
MIC ([2]; geometric mean across eight species, read-out: GM fungal MIC): 235 µg/mL (≈ 589 µM)
MIC ([2]; read-out: Geometric mean MIC): 235 µg/mL (≈ 589 µM)
MFC [3]: > 128 µg/mL
MIC [3]: > 128 µg/mL
FICI (FLC:INH) [4, 10]: 0.38
FICI (ITR:INH) [4, 11]: 0.63
FICI (KET:INH) [4, 12]: 0.31
INH MICc (FLC:INH) [4, 13]: 64
INH MICc (ITR:INH) [4, 14]: 32
INH MICc (KET:INH) [4, 15]: 16
FLC FD (FLC:INH) [4, 16]: 8
ITR FD (ITR:INH) [4, 17]: 2
KET FD (KET:INH) [4, 18]: 4
INH FD (FLC:INH) [4, 19]: 4
INH FD (ITR:INH) [4, 20]: 8
INH FD (KET:INH) [4, 21]: 16
IC50 ([5]; HEK-293T cells, read-out: IC50): 168 µg/mL (≈ 421 µM)
IC50 ([5]; read-out: HEK IC50): 168 µg/mL (≈ 421 µM)
MFC [6]: > 128 µg/mL
MIC [6]: > 128 µg/mL
FICI ([7]; FLC:INH combination): 2.5
INH MICc [7, 22]: 128
FLC FD (MIC-MICc fold decrease) [7, 23]: -2
INH FD (MIC-MICc fold decrease) ([7]; FLC:INH combination): 2
FICI ([7]; ITR:INH combination): ≥4
INH MICc [7, 24]: 128
ITR FD (MIC-MICc fold decrease) [7, 25]: -4
INH FD (MIC-MICc fold decrease) ([7]; ITR:INH combination): 2
FICI ([7]; KET:INH combination): 0.5
INH MICc [7, 26]: 64
KET FD (MIC-MICc fold decrease) [7, 27]: 4
INH FD (MIC-MICc fold decrease) ([7]; KET:INH combination): 4
FICI (FLC:INH) [8, 10]: 2
FICI (ITR:INH) [8, 11]: 0.51
FICI (KET:INH) [8, 12]: 1.5
INH MICc (FLC:INH) [8, 13]: 256
INH MICc (ITR:INH) [8, 14]: 2
INH MICc (KET:INH) [8, 15]: 128
FLC FD (FLC:INH) [8, 16]: 1
ITR FD (ITR:INH) [8, 17]: 2
KET FD (KET:INH) [8, 18]: 1
INH FD (FLC:INH) [8, 19]: 1
INH FD (ITR:INH) [8, 20]: 128
INH FD (KET:INH) [8, 21]: 2
FICI ([9]; FLC:INH combination): 0.75
INH MICc [9, 22]: 8
FLC FD (MIC-MICc fold decrease) [9, 23]: 2
INH FD (MIC-MICc fold decrease) ([9]; FLC:INH combination): 32
FICI ([9]; ITR:INH combination): 0.31
INH MICc [9, 24]: 2
ITR FD (MIC-MICc fold decrease) [9, 25]: 4
INH FD (MIC-MICc fold decrease) ([9]; ITR:INH combination): 128
FICI ([9]; KET:INH combination): 0.31
INH MICc [9, 26]: 2
KET FD (MIC-MICc fold decrease) [9, 27]: 4
INH FD (MIC-MICc fold decrease) ([9]; KET:INH combination): 128
